Results: US8426408B2, “Pyrimidine inhibitors of kinases” (AbbVie Inc., priority 2009, dated 2013)

Experiments:
Type in all cases: biochemical
[1] = biological target: T1, Aurora B (Homo sapiens, UniProt Q96GD4); assay: Aurora B enzyme inhibition (time-resolved fluorescence, histone H3 peptide); settings: 1 mM ATP
T1 construct: Active Aurora B enzyme (recombinant residues 1-344)
How it was run: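 IC50s came from an exponential fit of inhibition against inhibitor concentration, with phosphorylation read as the 665/615 nm time-resolved fluorescence ratio after EDTA stop using Eu-anti-phospho-H3 and SA-APC. The 1 h reaction used Aurora B 1-344 plus GST-INCENP, biotin-histone H3 1-21 peptide and 1 mM ATP in pH 7.4 HEPES buffer.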

[2] = biological target: T2, Aurora A (Homo sapiens, UniProt O14965); assay: Aurora A enzyme inhibition (time-resolved fluorescence, STK substrate-2); settings: 1 mM ATP
T2 sequence (O14965 1-403): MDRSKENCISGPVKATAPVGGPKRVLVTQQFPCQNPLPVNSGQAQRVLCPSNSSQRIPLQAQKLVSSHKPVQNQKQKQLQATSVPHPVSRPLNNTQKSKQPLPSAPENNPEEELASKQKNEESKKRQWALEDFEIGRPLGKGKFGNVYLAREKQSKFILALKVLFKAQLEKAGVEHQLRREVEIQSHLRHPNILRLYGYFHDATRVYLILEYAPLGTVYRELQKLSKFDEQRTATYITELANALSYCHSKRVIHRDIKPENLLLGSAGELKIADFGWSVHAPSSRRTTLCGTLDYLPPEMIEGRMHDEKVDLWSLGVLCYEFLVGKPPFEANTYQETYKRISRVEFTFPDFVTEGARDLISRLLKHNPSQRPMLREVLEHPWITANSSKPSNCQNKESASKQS
How it was run: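 Phosphorylation of biotinylated STK substrate-2 at 1 mM ATP, 1 h, Hepes buffer pH 7.4 (MgCl2, sodium orthovanadate, Triton X-100). After EDTA quench, 665/615 nm time-resolved fluorescence ratio read via europium anti-phospho antibody and SA-XL665; IC50 from exponential fit versus inhibitor concentration.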

[3] = biological target: KDR (Homo sapiens, UniProt P35968); assay: KDR HTRF in vitro kinase assay; set-up: purified enzyme (His6-KDR 789-1354, MW 63 kD); His6 (N); settings: 1 mM ATP; read-out: KDR enzyme inhibition data (Ki)
How it was run: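 His6-KDR 789-1354 (7 ng/well) with 0.5 μM biotinylated peptide substrate and 1 mM ATP in HEPES pH 7.1, MgCl2/MnCl2, 60 min at room temperature. EDTA-quenched, detected by streptavidin-XL-665 plus Eu-kryptate anti-phosphotyrosine HTRF after 3 h; IC50 from 620/665 nm ratio.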

Measured: Ki

KDR, sequence (P35968 789-1354): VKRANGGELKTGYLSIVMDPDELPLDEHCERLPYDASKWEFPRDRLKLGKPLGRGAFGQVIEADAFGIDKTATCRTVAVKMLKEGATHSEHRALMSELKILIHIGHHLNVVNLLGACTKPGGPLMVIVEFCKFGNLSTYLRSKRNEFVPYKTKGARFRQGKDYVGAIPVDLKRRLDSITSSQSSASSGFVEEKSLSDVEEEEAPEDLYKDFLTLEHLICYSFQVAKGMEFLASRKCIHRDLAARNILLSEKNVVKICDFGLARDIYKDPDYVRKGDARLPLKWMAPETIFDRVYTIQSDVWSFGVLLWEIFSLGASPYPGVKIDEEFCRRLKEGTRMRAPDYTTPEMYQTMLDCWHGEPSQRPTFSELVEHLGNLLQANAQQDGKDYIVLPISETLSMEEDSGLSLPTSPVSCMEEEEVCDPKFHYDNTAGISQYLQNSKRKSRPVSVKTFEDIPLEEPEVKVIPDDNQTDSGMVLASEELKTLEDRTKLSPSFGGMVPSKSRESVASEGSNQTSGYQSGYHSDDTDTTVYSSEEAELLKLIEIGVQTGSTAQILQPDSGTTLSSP
T1 sequence (Q96GD4 whole entry, the tested form may be a part): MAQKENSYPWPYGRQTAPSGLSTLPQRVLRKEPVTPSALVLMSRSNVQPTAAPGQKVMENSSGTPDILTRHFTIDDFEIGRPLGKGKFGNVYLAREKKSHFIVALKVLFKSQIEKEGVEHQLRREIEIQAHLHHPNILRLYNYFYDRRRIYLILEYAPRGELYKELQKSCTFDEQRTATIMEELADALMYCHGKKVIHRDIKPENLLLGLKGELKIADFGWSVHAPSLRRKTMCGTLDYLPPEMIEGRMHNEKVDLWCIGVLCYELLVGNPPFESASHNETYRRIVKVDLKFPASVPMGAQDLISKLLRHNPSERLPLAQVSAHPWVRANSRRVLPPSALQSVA
T1 sequence (Q9NQS7 826-918 partner limits assumed): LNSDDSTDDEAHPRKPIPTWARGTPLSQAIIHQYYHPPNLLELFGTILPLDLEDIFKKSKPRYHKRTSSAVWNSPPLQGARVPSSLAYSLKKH

Cn1cc(Nc2ncc(Cl)c(N[C@H]3[C@@H](C(N)=O)[C@@H]4C=C[C@H]3C4)n2)cn1 [Example 41, (1S,2S,3R,4R)-3-({5-chloro-2-[(1-methyl-1H-pyrazol-4-yl)amino]pyrimidin-4-yl}amino)bicyclo[2.2.1]hept-5-ene-2-carboxamide]
< 100 nM: all assays above

NC(=O)[C@@H]1[C@H](Nc2nc(Nc3cnn(CC(F)(F)F)c3)ncc2C(F)(F)F)[C@H]2C=C[C@@H]1C2 [Example 64, (1S,2S,3R,4R)-3-{[2-{[1-(2,2,2-trifluoroethyl)-1H-pyrazol-4-yl]amino}-5-(trifluoromethyl)pyrimidin-4-yl]amino}bicyclo[2.2.1]hept-5-ene-2-carboxamide]
< 100 nM: all assays above

CNC(=O)Cn1cc(Nc2ncc(Cl)c(N[C@H]3[C@@H](C(N)=O)[C@@H]4C=C[C@H]3C4)n2)cn1 [Example 75, (1S,2S,3R,4R)-3-{[5-chloro-2-({1-[2-(methylamino)-2-oxoethyl]-1H-pyrazol-4-yl}amino)pyrimidin-4-yl]amino}bicyclo[2.2.1]hept-5-ene-2-carboxamide]
< 100 nM: all assays above

CCN(CC)CCn1cc(Nc2ncc(Cl)c(N[C@H]3[C@@H](C(N)=O)[C@@H]4C=C[C@H]3C4)n2)cn1 (racemic) [Example 35, (1S,2S,3R,4R)-3-{[5-chloro-2-({1-[2-(diethylamino)ethyl]-1H-pyrazol-4-yl}amino)pyrimidin-4-yl]amino}bicyclo[2.2.1]hept-5-ene-2-carboxamide and (1R,2R,3S,4S)-3-{[5-chloro-2-({1-[2-(diethylamino)ethyl]-1H-pyrazol-4-yl}amino)pyrimidin-4-yl]amino}bicyclo[2.2.1]hept-5-ene-2-carboxamide]
< 100 nM: all assays above

CC(=O)NCC(=O)N1CCC(n2cc(Nc3ncc(Cl)c(N[C@H]4[C@@H](C(N)=O)[C@@H]5C=C[C@H]4C5)n3)cn2)CC1 [Example 85, (1S,2S,3R,4R)-3-{[2-({1-[1-(N-acetylglycyl)piperidin-4-yl]-1H-pyrazol-4-yl}amino)-5-chloropyrimidin-4-yl]amino}bicyclo[2.2.1]hept-5-ene-2-carboxamide]
< 100 nM: all assays above

NC(=O)[C@@H]1[C@H](Nc2nc(Nc3cnn(CCN4CCCC4)c3)ncc2Br)[C@H]2C=C[C@@H]1C2 (racemic) [Example 44, (1S,2S,3R,4R)-3-[(5-bromo-2-{[1-(2-pyrrolidin-1-ylethyl)-1H-pyrazol-4-yl]amino}pyrimidin-4-yl)amino]bicyclo[2.2.1]hept-5-ene-2-carboxamide and (1R,2R,3S,4S)-3-[(5-bromo-2-{[1-(2-pyrrolidin-1-ylethyl)-1H-pyrazol-4-yl]amino}pyrimidin-4-yl)amino]bicyclo[2.2.1]hept-5-ene-2-carboxamide]
< 100 nM: all assays above

CNC(=O)Cn1cc(Nc2ncc(Cl)c(NC3C4CCC(C4)C3C(N)=O)n2)cn1 (racemic) [Example 61, (1R,2S,3R,4S)-3-{[5-chloro-2-({1-[2-(methylamino)-2-oxoethyl]-1H-pyrazol-4-yl}amino)pyrimidin-4-yl]amino}bicyclo[2.2.1]heptane-2-carboxamide and (1S,2R,3S,4R)-3-{[5-chloro-2-({1-[2-(methylamino)-2-oxoethyl]-1H-pyrazol-4-yl}amino)pyrimidin-4-yl]amino}bicyclo[2.2.1]heptane-2-carboxamide]
< 100 nM: all assays above

NC(=O)[C@@H]1[C@H](Nc2nc(Nc3cnn([C@H]4CCCNC4)c3)ncc2Cl)[C@H]2C=C[C@@H]1C2 [Example 83, (1S,2S,3R,4R)-3-{[5-chloro-2-({1-[(3S)-piperidin-3-yl]-1H-pyrazol-4-yl}amino)pyrimidin-4-yl]amino}bicyclo[2.2.1]hept-5-ene-2-carboxamide]
< 100 nM: all assays above

CN(C)C(=O)Cn1cc(Nc2ncc(Cl)c(N[C@@H]3[C@H]4CC[C@H](C4)[C@@H]3C(N)=O)n2)cn1.CN(C)C(=O)Cn1cc(Nc2ncc(Cl)c(N[C@H]3[C@@H]4CC[C@@H](C4)[C@H]3C(N)=O)n2)cn1 (mixture of isomers) [Example 58, (1R,2S,3R,4S)-3-{[5-chloro-2-({1-[2-(dimethylamino)-2-oxoethyl]-1H-pyrazol-4-yl}amino)pyrimidin-4-yl]amino}bicyclo[2.2.1]heptane-2-carboxamide and (1S,2R,3S,4R)-3-{[5-chloro-2-({1-[2-(dimethylamino)-2-oxoethyl]-1H-pyrazol-4-yl}amino)pyrimidin-4-yl]amino}bicyclo[2.2.1]heptane-2-carboxamide]
< 100 nM: all assays above

NC(=O)[C@@H]1[C@H](Nc2nc(Nc3cnn([C@@H]4CCCNC4)c3)ncc2Cl)[C@H]2C=C[C@@H]1C2 [Example 84, (1S,2S,3R,4R)-3-{[5-chloro-2-({1-[(3R)-piperidin-3-yl]-1H-pyrazol-4-yl}amino)pyrimidin-4-yl]amino}bicyclo[2.2.1]hept-5-ene-2-carboxamide]
< 100 nM: all assays above

NC(=O)[C@@H]1[C@H](Nc2nc(Nc3cnn([C@@H]4CCNC4)c3)ncc2Cl)[C@H]2C=C[C@@H]1C2 [Example 73, (1S,2S,3R,4R)-3-{[5-chloro-2-({1-[(3R)-pyrrolidin-3-yl]-1H-pyrazol-4-yl}amino)pyrimidin-4-yl]amino}bicyclo[2.2.1]hept-5-ene-2-carboxamide]
< 100 nM: all assays above

NC(=O)[C@@H]1[C@H](Nc2nc(Nc3cnn(C4CNC4)c3)ncc2Cl)[C@H]2C=C[C@@H]1C2 [Example 81, (1S,2S,3R,4R)-3-({2-[(1-azetidin-3-yl-1H-pyrazol-4-yl)amino]-5-chloropyrimidin-4-yl}amino)bicyclo[2.2.1]hept-5-ene-2-carboxamide]
< 100 nM: all assays above

5-chloro-N^2-(1H-indazol-5-yl)-N^2-{1-[2-(pyrrolidin-1-yl)ethyl]-1H-pyrazol-4-yl}pyrimidine-2,4-diamine [Example 177]
< 100 nM: all assays above

(1S,2S,3R,4R)-3-[(5-chloro-2-{[1-(2-morpholin-4-ylethyl)-1H-pyrazol-4-yl]amino}pyrimidin-4-yl)amino]bicyclo[2.2.1]hept-5-ene-2-carboxamide and (1R,2R,3S,4S)-3-[(5-chloro-2-{[1-(2-morpholin-4-ylethyl)-1H-pyrazol-4-yl]amino}pyrimidin-4-yl)amino]bicyclo[2.2.1]hept-5-ene-2-carboxamide [Example 37]
< 100 nM: all assays above

NC(=O)[C@@H]1[C@H](Nc2nc(Nc3cnn(CCO)c3)ncc2C(F)(F)F)[C@H]2C=C[C@@H]1C2 [Example 63, (1S,2S,3R,4R)-3-{[2-{[1-(2-hydroxyethyl)-1H-pyrazol-4-yl]amino}-5-(trifluoromethyl)pyrimidin-4-yl]amino}bicyclo[2.2.1]hept-5-ene-2-carboxamide]
< 100 nM: all assays above
